Results reported in patent US20100130597A1, “DNA-PKCS MODULATES ENERGY REGULATION AND BRAIN FUNCTION” (The United State of America, as represented by the …, priority 2007, published 2010).

Assays:
[1] = Body weight, fat and lean mass, food intake and activity of treated mice; assay type: in vivo
Method: To determine the source of the body weight difference observed as described in Example 9, the fat and lean mass of the animals used in these experiments were measured using NMR spectroscopy (Bruker BioSpin Corporation, Houston, Tex.). Body fat indices were calculated by dividing fat or lean mass by body weight.
(§1) The therapeutic potential of DNA-PKcs inhibitors to treat insulin resistance and diabetes was tested in vivo using high-fat induced type 2 diabetes and obesity models. We examined the effects of DNA-PKcs inhibition by feeding C57BL6/J mice with Compound 36 (Cpd36) or vehicle. Mice were treated with Cpd36 (8 mg/kg body weight) twice daily by oral gavage for three months in all efficacy studies shown in FIGS. 40-47.
Body weight was monitored in mice receiving Cpd36 (8 mg/kg body weight) twice daily by oral gavage for three months.

[2] = Glucose levels, insulin tolerance and glucose tolerance tests in treated mice; assay type: in vivo; conditions: for fed glucose levels in the serum: 8 mg/kg twice daily oral gavage three months
Method: as §1

[3] = Treadmill running endurance; assay type: in vivo, mice
Method: Previous studies have shown that increased expression of PPARδ or PGC-1α in skeletal muscle decreases exercise-induced fatigue. Therefore, tests were performed to ascertain what was the physical endurance of 4, 7 and 14 month-old SCID and WT mice using treadmill running. Prior to the exercise test, the mice were accustomed to and trained by running on an Exer-3/6 mouse treadmill (Columbus Instruments) at 7 m/min for 5 minutes for 3 days. For the endurance test, the treadmill speed was increased to 10 m/min and mice were allowed to run until exhaustion.
The therapeutic potential of DNA-PKcs inhibitors to reverse physical decline with aging was tested. In particular, the physical endurance of obese and middle-aged mice treated with Cpd36 was examined by treadmill running. Obese mice fed a high-fat diet that were treated with Cpd36 were able to run 40-50% farther over a given period of time than the control mice fed the same high fat diet (FIG. 45), as measured by totaling the distance run on a treadmill. Middle-aged mice (13 months) fed a breeder diet who were similarly treated with Cpd36 were also able to run 40-50% farther than middle aged mice that received no such treatment (data not shown).

[4] = Blood lactate during standardized treadmill test; assay type: in vivo, mice; conditions: capillary blood during standardized treadmill test, FIG. 46A
Method: The use of Cpd36 may also facilitate more rapid recovery following intense physical exertion. Blood lactate concentrations were measured in capillary blood during a standardized treadmill test.

Elevated plus maze test = assay type: in vivo, mice
Method: To evaluate whether SCID mice may also have altered anxiety, fear and depression-like traits, an elevated plus maze test was performed, which is a commonly used test to quantify the level of anxiety- and depression-like traits in rodents (Pellow et al. J. Neurosci. Methods 14: 149-67 (1985)). The elevated plus maze has narrow runways that are located 16 inches above the surface that are either closed or open. The animal is placed in the center of an elevated 4-arm maze in which 2 arms are open and 2 are enclosed. Mice generally avoid the open arms because of their fear of open space and height. The elevated plus-maze is used to determine the rodent's response to a potentially dangerous environment and anxiety-related behavior is measured by the degree to which the rodent avoids the unenclosed arms of the maze. Increase in the number of times the animal enters the open arm and the amount of time spent in the open arms reflect decreased anxiety and depression.
(§2) Elevated plus maze tests, light/dark chamber tests, forced swim tests (FST) and hot plate tests were performed as described earlier.

Light/dark chamber test = assay type: in vivo; conditions: treated vs untreated mice
Method: WT and SCID mice were tested in another anxiety test using the light-dark box (Bourin and Hascoet, Eur J Pharmacol 463:55 (2003)). The light-dark box test is based on the innate aversion of rodents to brightly illuminated areas and on the spontaneous exploratory behavior of rodents in response to a mildly stressful situation, that is, a novel environment and light (Crawley and Goodwin Pharmacol Biochem Behav 13:167, 1980). In the light-dark test, increased activity in the light compartment indicates decreased anxiety.
as §2

Forced swim test (FST) = assay type: in vivo, mice
Method: as §2

[5] = Hot plate test, latency for pain reaction; assay type: in vivo, mice; conditions: hot plate, FIG. 48E
Method: Epidemiological studies indicate that people with mood disorders are twice as likely to have chronic pain compared to people without mood disorders (Ohayon et al., Arch. Gen. Psychiatry 60: 39-47 (2003)). Although it is possible that pain contributes to the depressed mood, it is also possible that perception of pain is increased in people with mood disorders. To determine whether SCID mice have altered pain tolerance, the latency for pain reaction to a hot plate was measured. […] (FIG. 30) and at 55° C.
Because tolerance to pain (Example 26) is also linked to the serotonergic pathways, measurements of the latency to pain reaction on hot plate after saline, serotonin reuptake inhibitor fluoxetine (Prozac) or serotonin antagonist GR38032F (Zofran) injection were made.
as §2

C2C12 cells [6] = test: Cellular lactate and pyruvate in C2C12 cells; assay type: cell-based; conditions: 0.8 μM
C2C12 cells [7] = test: Intercellular NAD:NADH ratio in C2C12 cells; assay type: cell-based; conditions: FIG. 54, Resveratrol 50 μM data not shown
Method: To test whether DNA-PKcs inhibitor affects Sirt1 activity, the intercellular NAD:NADH ratio was measured in C2C12 cells treated with Cpd36.

[8] = Blood-brain barrier penetration inferred from behavioural effects; assay type: in vivo, mice; conditions: inferred from decreased anxiety/depression at a low-dose
Text: For any central nervous system drugs, a major rate-limiting step for uptake into the brain is BBB permeability. […] The BBB is an essential physiological barrier for the maintenance and regulation of brain function. It is comprised of brain microvascular endothelial cells that are connected by tight junctions. This transvascular route to the brain is impenetrable to the majority of drugs. Enhanced BBB permeability is obtained, for example, by increasing the lipid solubility of the water-soluble molecules.

O=c1cc(N2CCOCC2)oc2c(-c3cccc4c5c(sc34)CCCC5)cccc12 [Compound 36, 8-(6′,7′,8′,9′-Tetrahydrodibenzothiophen-4′-yl)-2-N-morpholinochromen-4-one]
fat mass (NMR) ([1]; HFD mice vs control, FIG. 44): reduction in fat mass | lean mass (NMR) ([1]; HFD mice vs control, FIG. 44): slight increase in lean mass | body weight ([1]; HFD mice, 8 mg/kg twice daily oral gavage three months, FIG. 43): did not increase in body weight substantially | food intake ([1]; HFD mice, 8 mg/kg twice daily oral gavage three months, data not shown): did increase | activity of mice vs control HFD mice ([1]; HFD mice, data not shown): no significant difference | mesenteric fat ([1]; mice on HFD 3 months, 8 mg/kg twice daily oral gavage 3 months, vs vehicle): reduced mesenteric fat significantly | fed glucose levels in the serum ([2]; HFD (obese) mice, FIG. 40A): lowered fed glucose levels | fed glucose levels in the serum ([2]; middle-aged mice (breeder diet 13 months), FIG. 40B): lowered fed glucose levels | glucose tolerance ([2]; middle-aged mice, FIG. 41): increased | insulin sensitivity ([2]; middle-aged mice, FIG. 41): increased | glucose tolerance ([2]; obese mice, FIG. 42): increased | insulin sensitivity ([2]; obese mice, FIG. 42): increased | distance run on treadmill, farther than untreated ([3]; middle-aged mice (13 months) on breeder diet, data not shown): 40-50% | distance run on treadmill, farther than control ([3]; obese mice on high-fat diet, FIG. 45): 40-50% | serum lactate levels [4]: Significantly lower serum lactate levels | levels of anxiety/depression (Elevated plus maze test; elevated plus maze and light/dark chamber tests, FIGS. 47 and 48): dramatically lower levels of anxiety/depression | time in closed arm of the elevated plus maze (Elevated plus maze test; treated vs untreated mice): less time in a closed arm | time in the light compartment (Light/dark chamber test): more time in the light compartment | time to enter the light chamber (Light/dark chamber test): quicker to enter the light chamber | mobility vs untreated mice (Forced swim test (FST); FIG. 47D): more mobile | immobility in the forced swim test (Forced swim test (FST); data not shown): decreased immobility | pain sensation [5]: decreased pain sensation | lactate levels in cell extracts (C2C12 cells [6]; 16 hrs, FIG. 46B): Reduced lactate levels | Cellular pyruvate level (C2C12 cells [6]; data not shown): increased | intercellular NAD:NADH ratio (C2C12 cells [7]): increased the NAD:NADH ratio | blood-brain barrier (BBB) penetration [8]: can penetrate the blood-brain barrier (BBB) efficiently
